{"source": "ChEMBL document CHEMBL1240386", "about": "“Pharmacokinetics of antituberculosis drugs in pulmonary tuberculosis patients with type 2 diabetes” (Antimicrob Agents Chemother, 2010)", "type_in_all_cases": "ADME, organism-based", "key": {"[1]": {"assay": "AUC (0 to 24 hrs) in diabetic tuberculosis patient at 10 mg/kg, po and 10 mg/kg, iv by HPLC analysis", "conditions": "human, plasma"}, "[2]": {"assay": "AUC (0 to 24 hrs) in tuberculosis patient at 10 mg/kg, po by HPLC analysis", "set-up": "time < 24 hr, dose 10 mg/kg, route oral", "conditions": "human, plasma"}, "[3]": {"species": "Homo sapiens", "assay": "Ratio of AUC (0 to 24 hrs) for diabetic tuberculosis patient to AUC (0 to 24 hrs) for tuberculosis patient", "conditions": "in vivo"}, "[4]": {"assay": "Cmax in diabetic tuberculosis patient at 10 mg/kg, po and 10 mg/kg, iv by HPLC analysis", "conditions": "human, in vivo"}, "[5]": {"assay": "Cmax in tuberculosis patient at 10 mg/kg, po by HPLC analysis", "set-up": "dose 10 mg/kg, route oral", "conditions": "human, in vivo"}, "[6]": {"species": "Homo sapiens", "assay": "Ratio of Cmax in diabetic tuberculosis patient to Cmax in tuberculosis patient", "conditions": "in vivo"}, "[7]": {"assay": "Tmax in diabetic tuberculosis patient at 10 mg/kg, po and 10 mg/kg, iv by HPLC analysis", "conditions": "human, in vivo"}, "[8]": {"assay": "Tmax in tuberculosis patient at 10 mg/kg, po by HPLC analysis", "set-up": "dose 10 mg/kg, route oral", "conditions": "human, in vivo"}, "[9]": {"assay": "Half life in diabetic tuberculosis patient at 10 mg/kg, po and 10 mg/kg, iv by HPLC analysis", "conditions": "human, in vivo"}, "[10]": {"assay": "Half life in tuberculosis patient at 10 mg/kg, po by HPLC analysis", "set-up": "dose 10 mg/kg, route oral", "conditions": "human, in vivo"}, "[11]": {"species": "Homo sapiens", "assay": "Ratio of half life in diabetic tuberculosis patient to half life in tuberculosis patient", "conditions": "in vivo"}, "[12]": {"assay": "AUC (0 to 24 hrs) in diabetic tuberculosis patient at 15 mg/kg, po by HPLC analysis", "set-up": "time < 24 hr, dose 15 mg/kg, route oral", "conditions": "human, plasma"}, "[13]": {"assay": "AUC (0 to 24 hrs) in tuberculosis patient at 15 mg/kg, po by HPLC analysis", "set-up": "time < 24 hr, dose 15 mg/kg, route oral", "conditions": "human, plasma"}, "[14]": {"system": "Homo sapiens", "assay": "Ratio of sAUC (0 to 24 hrs) for diabetic tuberculosis patient to sAUC (0 to 24 hrs) for tuberculosis patient at 15 mg/kg, po", "set-up": "dose 15 mg/kg, route oral", "conditions": "in vivo"}, "[15]": {"assay": "Cmax in diabetic tuberculosis patient at 15 mg/kg, po by HPLC analysis", "set-up": "dose 15 mg/kg, route oral", "conditions": "human, in vivo"}, "[16]": {"assay": "Cmax in tuberculosis patient at 15 mg/kg, po by HPLC analysis", "set-up": "dose 15 mg/kg, route oral", "conditions": "human, in vivo"}, "[17]": {"system": "Homo sapiens", "assay": "Ratio of Cmax in diabetic tuberculosis patient to Cmax in tuberculosis patient at 15 mg/kg, po", "set-up": "dose 15 mg/kg, route oral", "conditions": "in vivo"}, "[18]": {"assay": "Tmax in diabetic tuberculosis patient at 15 mg/kg, po by HPLC analysis", "set-up": "dose 15 mg/kg, route oral", "conditions": "human, in vivo"}, "[19]": {"assay": "Tmax in tuberculosis patient at 15 mg/kg, po by HPLC analysis", "set-up": "dose 15 mg/kg, route oral", "conditions": "human, in vivo"}, "[20]": {"assay": "AUC (0 to 24 hrs) in diabetic tuberculosis patient at 30 mg/kg, po by HPLC analysis", "set-up": "time < 24 hr, dose 30 mg/kg, route oral", "conditions": "human, plasma"}, "[21]": {"assay": "AUC (0 to 24 hrs) in tuberculosis patient at 30 mg/kg, po by HPLC analysis", "set-up": "time < 24 hr, dose 30 mg/kg, route oral", "conditions": "human, plasma"}, "[22]": {"system": "Homo sapiens", "assay": "Ratio of AUC (0 to 24 hrs) for diabetic tuberculosis patient to AUC (0 to 24 hrs) for tuberculosis patient at 30 mg/kg, po", "set-up": "dose 30 mg/kg, route oral", "conditions": "in vivo"}, "[23]": {"assay": "Cmax in diabetic tuberculosis patient at 30 mg/kg, po by HPLC analysis", "set-up": "dose 30 mg/kg, route oral", "conditions": "human, in vivo"}, "[24]": {"assay": "Cmax in tuberculosis patient at 30 mg/kg, po by HPLC analysis", "set-up": "dose 30 mg/kg, route oral", "conditions": "human, in vivo"}, "[25]": {"system": "Homo sapiens", "assay": "Ratio of Cmax in diabetic tuberculosis patient to Cmax in tuberculosis patient at 30 mg/kg, po", "set-up": "dose 30 mg/kg, route oral", "conditions": "in vivo"}, "[26]": {"assay": "Tmax in diabetic tuberculosis patient at 30 mg/kg, po by HPLC analysis", "set-up": "dose 30 mg/kg, route oral", "conditions": "human, in vivo"}, "[27]": {"assay": "Tmax in tuberculosis patient at 30 mg/kg, po by HPLC analysis", "set-up": "dose 30 mg/kg, route oral", "conditions": "human, in vivo"}, "[28]": {"assay": "Apparent oral clearance in tuberculosis patient at 10 mg/kg, po by HPLC analysis", "set-up": "dose 10 mg/kg, route oral", "conditions": "human, in vivo"}, "[29]": {"assay": "Apparent volume of distribution in tuberculosis patient at 10 mg/kg, po by HPLC analysis", "set-up": "dose 10 mg/kg, route oral", "conditions": "human, in vivo, read-out: Vc/F"}, "[30]": {"assay": "Apparent volume of distribution in diabetic tuberculosis patient at 10 mg/kg, po and 10 mg/kg, iv by HPLC analysis", "conditions": "human, in vivo, read-out: Vc/F"}, "[31]": {"assay": "Bioavailability in diabetic tuberculosis patient at 10 mg/kg, po and 10 mg/kg, iv by HPLC analysis", "conditions": "human, in vivo"}, "[32]": {"assay": "Oral bioavailability in tuberculosis patient at 10 mg/kg by HPLC analysis", "conditions": "human, in vivo"}}}
{"compound": "CO[C@H]1/C=C/O[C@@]2(C)Oc3c(C)c(O)c4c(O)c(c(/C=N/N5CCN(C)CC5)c(O)c4c3C2=O)NC(=O)/C(C)=C\\C=C\\[C@H](C)[C@H](O)[C@@H](C)[C@@H](O)[C@@H](C)[C@H](O)[C@@H]1C", "values": [{"measurement": "AUC(0-t)", "setting": "[1]", "value": 5700, "unit": "ng·h/mL"}, {"measurement": "AUC(0-t) at 24 h", "setting": "[2]", "value": 8300, "unit": "ng·h/mL"}, {"measurement": "Ratio", "setting": "[3]", "value": 0.69}, {"measurement": "Cmax", "setting": "[4]", "value": 1100, "unit": "ng/mL"}, {"measurement": "Cmax", "setting": "[5]", "value": 1400, "unit": "ng/mL"}, {"measurement": "Ratio", "setting": "[6]", "value": 0.78}, {"measurement": "Tmax", "setting": "[7]", "value": 3, "unit": "h"}, {"measurement": "Tmax", "setting": "[8]", "value": 4, "unit": "h"}, {"measurement": "half-life", "setting": "[9]", "value": 2.3, "unit": "h"}, {"measurement": "half-life", "setting": "[10]", "value": 2.4, "unit": "h"}, {"measurement": "Ratio", "setting": "[11]", "value": 0.94}]}
{"compound": "CC[C@@H](CO)NCCN[C@@H](CC)CO", "note": "[ETHAMBUTOL]", "values": [{"measurement": "AUC(0-t) at 24 h", "setting": "[12]", "value": 13800, "unit": "ng·h/mL"}, {"measurement": "AUC(0-t) at 24 h", "setting": "[13]", "value": 13500, "unit": "ng·h/mL"}, {"measurement": "Ratio", "setting": "[14]", "value": 1.02}, {"measurement": "Cmax", "setting": "[15]", "value": 2200, "unit": "ng/mL"}, {"measurement": "Cmax", "setting": "[16]", "value": 1950, "unit": "ng/mL"}, {"measurement": "Ratio", "setting": "[17]", "value": 1.12}, {"measurement": "Tmax", "setting": "[18]", "value": 3, "unit": "h"}, {"measurement": "Tmax", "setting": "[19]", "value": 3, "unit": "h"}]}
{"compound": "NC(=O)c1cnccn1", "note": "[PYRAZINAMIDE]", "values": [{"measurement": "AUC(0-t) at 24 h", "setting": "[20]", "value": 409000, "unit": "ng·h/mL"}, {"measurement": "AUC(0-t) at 24 h", "setting": "[21]", "value": 468000, "unit": "ng·h/mL"}, {"measurement": "Ratio", "setting": "[22]", "value": 0.88}, {"measurement": "Cmax", "setting": "[23]", "value": 45500, "unit": "ng/mL"}, {"measurement": "Cmax", "setting": "[24]", "value": 47000, "unit": "ng/mL"}, {"measurement": "Ratio", "setting": "[25]", "value": 0.96}, {"measurement": "Tmax", "setting": "[26]", "value": 1, "unit": "h"}, {"measurement": "Tmax", "setting": "[27]", "value": 1.5, "unit": "h"}]}
{"compound": "CO[C@H]1/C=C/O[C@@]2(C)Oc3c(C)c(O)c4c(O)c(c(/C=N/N5CCN(C)CC5)c(O)c4c3C2=O)NC(=O)/C(C)=C\\C=C\\[C@H](C)[C@H](O)[C@@H](C)[C@@H](O)[C@@H](C)[C@H](OC(C)=O)[C@@H]1C", "note": "[RIFAMPIN]", "values": [{"measurement": "AUC(0-t)", "setting": "[1]", "value": 49000, "unit": "ng·h/mL"}, {"measurement": "AUC(0-t) at 24 h", "setting": "[2]", "value": 50600, "unit": "ng·h/mL"}, {"measurement": "Cmax", "setting": "[5]", "value": 9600, "unit": "ng/mL"}, {"measurement": "Tmax", "setting": "[7]", "value": 2, "unit": "h"}, {"measurement": "Tmax", "setting": "[8]", "value": 2.5, "unit": "h"}, {"measurement": "CL/F", "setting": "[28]", "value": 148, "unit": "mL/min"}, {"measurement": "Vd/F", "setting": "[29]", "value": 27.6, "unit": "L"}, {"measurement": "Vd/F", "setting": "[30]", "value": 27.4, "unit": "L"}, {"measurement": "bioavailability", "setting": "[31]", "value": 69, "unit": "%"}, {"measurement": "bioavailability", "setting": "[32]", "value": 74, "unit": "%"}]}
